Measurements published in patent US20130072466A1, “COMPOSITION CONTAINING PLACENTA EXTRACTS” (Industry-Academic Cooperation Foundation, Yeungnam …, priority 2010, published 2013).

Legend:
red blood cells = assay: Numerical change assay of red blood cells in peripheral blood; type: in vivo, CD-1 mice; conditions: 0.1% placenta extract, subcutaneous, 14 days; compared to the control; FIG. 11
Method: (§1) The placenta 1 extract prepared according to the example was dissolved with 100% ethanol as a primary solvent, and sesame oil for body injection was added thereto to obtain a 1 g/ml concentration, and the resultant product was diluted into 0.1% concentration. Herein, 100% was defined as a case in which the extract was diluted with sesame oil by a factor of 100. The diluted extract was subcutaneously injected for 14 days to 6-8 week-old CD-1 mice which had been raised under physiological conditions (6 mice per each group).
The cells were treated with 0.1% placenta extract under the same conditions as described above, and then, peripheral blood was collected, and then, 1 mg/ml of EDTA was added thereto to prevent blood coagulation. Then, the number of red blood cells was counted by using an analyzer.

reproductive cycle = assay: Reproductive cycle change assay by vaginal smearing; type: in vivo, CD-1 mice; conditions: subcutaneous injection for 14 days, FIG. 9
Method: as §1
To identify effects of the placenta extract on a reproductive cycle, a reproductive cycle was assayed by vaginal smearing during the administration of the placenta extract.

[1] = test system: CD34 hematopoietic stem cells; assay: CD34-marked numerical change assay of hematopoietic stem cells using FACS; type: in vivo, CD-1 mouse; conditions: 0.1% placenta extract, subcutaneous, 14 days, FIG. 10
Method: as §1
Whether the placenta extract promotes proliferation of hematopoietic stem cells was identified with CD34 that is a marking factor. CD-1 mouse treated with 0.1% placenta extract was sacrificed to collect a thighbone, and then, a bone marrow was extracted therefrom by using PBS solution. Thereafter, the bone marrow was reacted with CD34 specific antibody, and then, CD34 hematopoietic stem cells were counted by using a fluorescent activated cell sorter.

C[C@]12CC[C@H]3[C@@H](CCC4=CC(=O)CC[C@@H]43)[C@@H]1CC[C@@H]2O [nandrolone]
number of red blood cells in peripheral blood (red blood cells): the number of red blood cells significantly increased | reproductive cycle periodicity (reproductive cycle): a reproductive cycle gradually became non-periodic | number of CD34 hematopoietic stem cells in bone marrow [1]: the number of hematopoietic stem cells significantly increased
